# Laboratory results from ChEMBL document CHEMBL3396975, “Structural development of stapled short helical peptides as vitamin D receptor (VDR)-coactivator interaction inhibitors” (Bioorg Med Chem, 2015).
# Starred links: 1 amine or outer side, 2 acyl side, 3 side chain; linkers in the order of their positions; H or OH if unused. Positions of bridges follow the written chain, without caps; N, C: chain ends. Non-standard residues stand in square brackets, D forms with d. Residues, ends and D or L forms follow the SMILES beside them. *: point of attachment. X2 = O=C(C(CO)(CO)N[*:1])[*:2]; X1 = OC(C[*:1])C(O)C[*:2]; hSer = N[C@@H](CCO)C(=O)O; X3 = C(CC[*:2])C[*:1]; Aib = CC(C)(N)C(=O)O; Allyl = C=CC*
# Target: T1, Vitamin D3 receptor (Homo sapiens, UniProt P11473)
# T1 sequence (P11473 whole entry): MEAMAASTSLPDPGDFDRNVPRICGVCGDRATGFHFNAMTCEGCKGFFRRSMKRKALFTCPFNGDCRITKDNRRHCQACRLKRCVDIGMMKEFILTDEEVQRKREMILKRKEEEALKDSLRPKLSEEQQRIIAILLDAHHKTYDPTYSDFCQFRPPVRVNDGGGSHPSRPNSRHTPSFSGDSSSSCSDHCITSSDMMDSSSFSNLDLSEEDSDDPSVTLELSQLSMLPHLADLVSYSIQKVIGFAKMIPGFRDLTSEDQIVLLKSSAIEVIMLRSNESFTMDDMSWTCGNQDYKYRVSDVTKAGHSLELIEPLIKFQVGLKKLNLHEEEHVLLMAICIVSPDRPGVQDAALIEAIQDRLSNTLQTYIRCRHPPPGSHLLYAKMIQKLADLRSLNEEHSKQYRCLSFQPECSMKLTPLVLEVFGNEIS
# Test: Inhibition of human VDR-cofactor interaction by EnBio receptor cofactor assay system
row,IC50,Structure (SMILES)
1,500 µM,C=CCOCC[C@H](NC(=O)[C@H](CC(C)C)NC(=O)[C@H](CC(C)C)NC(=O)C(C)(C)NC(=O)[C@H](CCOCC=C)NC(=O)[C@H](CC(C)C)NC(=O)[C@@H](N)CC(C)C)C(=O)O (H-LL[hSer](Allyl)[Aib]LL[hSer](Allyl)-OH)
2,67 µM,CC(=O)N[C@@H](CC(C)C)C(=O)N[C@@H](CC(C)C)C(=O)N[C@H]1CCOCC(O)C(O)COCC[C@@H](C(N)=O)NC(=O)[C@H](CC(C)C)NC(=O)[C@H](CC(C)C)NC(=O)C(C)(C)NC1=O (stereo partly drawn) (Ac-LL[hSer][Aib]LL[hSer]-NH2; linker 3-7 via X1)
3,20 µM,CC(=O)N[C@@H](CC(C)C)C(=O)N[C@@H](CC(C)C)C(=O)N[C@H]1CCOCCCCOCC[C@@H](C(N)=O)NC(=O)[C@H](CC(C)C)NC(=O)[C@H](CC(C)C)NC(=O)C(CO)(CO)NC1=O (Ac-LL[hSer][X2]LL[hSer]-NH2; linker 3-7 via X3)
